# Measured values: article PMC6609550, “Blockade of the forward Na^+/Ca^2+ exchanger suppresses the growth of glioblastoma cells through Ca^2+‐mediated cell death” (British Journal of Pharmacology, 2019)
# What was measured:
# Format in all cases: cell-based, Human
# U87 cells [1] = experiment: Cell viability assay (Cell Counting Kit-8), U87; conditions: 72 hr, CCK-8; mean ± SEM
# Protocol: (§1) Cell viability was determined by using a Cell Counting Kit‐8 (Dojindo, Japan). Briefly, cells were harvested from flasks and plated in 96‐well cell culture plates at 5 × 10^3 per well and cultured overnight. […] Control cells were treated with cell culture medium and measured at the same time point as treatment groups. CCK‐8 solution (10 μl) was added to each well of the 96‐well plates, and the cultures were incubated for 30 min at 37°C. Absorbance at 450 nm was measured using an automatic microplate reader (Molecular Devices, San Jose, CA, USA).
# (§2) Figure 2 Effect of the Na^+/Ca^2+ exchanger (NCX) blockers on viability of human glioblastoma cell lines. (a, b) Viability of adult glioblastoma cell lines (U87 and U251) after exposure to NCX blockers bepridil, KB‐R7943, SEA0400, SN‐6, or YM244769 at 0–100 μM for 72 hr. n = 5 independent tests per group. (c) Viability of paediatric glioblastoma cell line SF188 after 72‐hr incubation with the same NCX blockers at 0–100 μM. n = 5 independent tests per group. (d) For U87, U251, and SF188 cell lines, concentration of the NCX blockers required to produce half maximal inhibition (IC50: μM, mean ± SEM) of cell viability.
# U251 cells = experiment: Cell viability assay (Cell Counting Kit-8), U251; conditions: 72 hr, CCK-8; mean ± SEM
# Protocol: as §1, §2
# U87 cells [2] = experiment: Cell cycle assay (PI staining, flow cytometry) of U87 cells; conditions: bepridil 25 μM 6–24 hr, CB‐DMB 3.5 μM 6–24 hr, KB‐R7943 25 μM 18 hr, BAPTA‐AM 10 μM 18 hr, CC‐930 10 μM, PD169316 10 μM 18 hr
# Protocol: (§3) U87 cells were seeded in six‐well plates (Corning, Corning, NY, USA) with 1 × 10^6 cells per well and treated with NCX blockers, BAPTA‐AM, or MAPK inhibitors. Drug treatment was performed by the person who is blinded to the experimental groups. After treatment, cells were harvested in 15‐ml tubes and washed with cold sterile PBS. After being centrifuged, cells were fixed with 70% ethanol […] at 4°C for at least 1 hr. For propidium iodide (PI) staining, cells were washed one time with PBS and then were treated with ribonuclease A (RNase; 100 μg·ml^−1) for 30 min. PI (10 μg·ml^−1) was added, and stained cells were kept in the dark at 4°C until analysis. The number of cells analysed for each sample was 10,000 events. FACS analysis was performed using the Coulter CytoFlexS flow cytometer (Beckman Coulter, CA, USA), and the percentage of cells in the G0/G1, S, and G2/M phases was determined using cell cycle analysis software, ModFit LT 5.0 (Verity Software House, Topsham, ME, USA). For the apoptosis assay, cells were harvested and washed twice with cold PBS and resuspended at a density of 1 × 10^6 cells·ml^−1 in 100 μl of binding buffer containing 5 μl of Annexin V–FITC and 5 μl of PI working solution (100 μg·ml^−1). After incubation at room temperature for 15 min in the dark, 400 μl of binding buffer was added to each sample. Apoptosis was analysed by Coulter CytoFlexS flow cytometer (Beckman Coulter) for at least 10,000 events, and data were analysed with the software, CyExpert 2.0 (Beckman Coulter).
# [Ca^2+]i in U87 cells = Ca2+ imaging (Fluo-4 AM) of U87 cells
# Protocol: (§4) Cells were cultured in 96‐well plates at 8 × 10^3 per well and loaded with the cell membrane‐permeable Ca^2+ dye Fluo‐4 AM (5 μM) in 100‐μl HEPES‐buffered solution for 50 min. The solution contained (mM): 135 NaCl, 3 KCl, 2 CaCl2, 1 MgCl2, 10 glucose, and 10 HEPES, supplemented with 1% FBS at pH 7.4. To prepare the Ca^2+‐free solution, 2‐mM CaCl2 was replaced with 1‐mM EGTA in the HEPES‐buffered solution. The 96‐well plate containing the Fluo‐4 AM‐loaded cells was mounted in a Leica TCS SP8 confocal system (Leica Microsystems, Wetzlar, Germany). The confocal microscope armed with 488‐nm laser light was employed to excite the dynamic fluorescent signals in time and synchronously, while test regents were added to cells. To do Na^+ imaging, Fluo‐4 AM was replaced with the cell membrane‐permeable Na^+ dye Asante NaTrium Green‐2 AM (ANG‐2 AM) at 5 μM, which was excited by 514‐nm laser light. Visual inspection and fluorescent imaging were carried out at room temperature. The imaging data were analysed with the software https://leica-las-af-lite.software.informer.com/ 2.5 (Leica). The imaging traces shown are representative of at least three separate experiments; 12–18 cells were imaged in each experiment.
# [Na^+]i in U87 cells = Na+ imaging (ANG-2 AM) of U87 cells; conditions: bepridil 50 μM, KB‐R7943 50 μM, CB‐DMB 4 μM
# Protocol: as §4
# U87 cells [3] = experiment: Annexin V–FITC/PI apoptosis assay of U87 cells; conditions: for Effect on apoptosis (Annexin V+ cells), compound alone: bepridil 25 μM 6–48 hr, CB‐DMB 3.5 μM 6–48 hr, KB‐R7943 25 μM 20 hr, BAPTA‐AM 10 μM 18 hr, CC‐930 10 μM, PD169316 10 μM
# Protocol: as §3
# SF188 cells = experiment: Cell viability assay (Cell Counting Kit-8), SF188; conditions: 72 hr, CCK-8; mean ± SEM
# Protocol: as §1, §2
# reverse NCX = experiment: Whole-cell patch-clamp recording of reverse-mode NCX currents in U87 cells; conditions: reverse NCX current measured at +50 mV, mean ± SEM, n = 4, read-out: IC50, blocking reverse NCX (currents)
# Protocol: (§5) Whole‐cell patch‐clamp recording was performed using a Multiclamp 700B amplifier (Molecular Devices, Foster City, CA, USA) at room temperature. Voltage protocols were provided and current recorded via a DigiData‐1550B interface (Molecular Devices) controlled by pClamp 10 Software (Molecular Devices, RRID:SCR_011323). […] Internal solution consisted of (in mM): 120 CsCl, 20 NaCl, 2 MgCl2, 13 CaCl2, 2 Na2ATP, 20 BAPTA, and 10 HEPES at a pH 7.2. […] Series resistance was compensated by 75–85%. Linear leak and residual capacitance currents were subtracted online using a P/4 protocol of the pClamp 10. For the recording of the membrane currents related to the NCX, cells were held at −50 mV and depolarized to +60 mV, and then a voltage ramp starting from +60 to −120 mV was applied for 1,000 ms before returning back to −50 mV. The reverse and forward NCX currents were measured at +50 and −110 mV holding potentials respectively (Molinaro et al., 2008; Rahman, Inman, Kiss, & Janssen, 2012; Song, Chen, & Yu, 2014). Data were filtered at 3 KHz and digitized at sampling rates of 20 KHz. For drug application, cells were perfused with a VC‐6 Six Channel Perfusion Valve Control Systems (Warner Instruments, Greenwich, CT, USA) connected to a gravity‐fed perfusion systems.
# (§6) Data are expressed as mean ± SEM and analysed by Prism 7 software, La Jolla, CA (GraphPad Prism, RRID:SCR_002798). The data and statistical analysis comply with the recommendations of the British Journal of Pharmacology on experimental design and analysis in pharmacology. Concentrations of the NCX blockers (IC50) exerting half‐maximal inhibition of NCX currents were obtained by fitting the concentration–response with the equation: I/I0*100%=Bottom+Top−Bottom/1+10^((^Log^IC50−C)*n) , where I 0 and I are current amplitudes measured in control and in the presence of NCX blockers, C is the logarithm of concentration, and n is the Hill coefficient. The statistical difference between two independent groups was analysed by Student's parametric unpaired t test. And the original data of more than two groups were assessed by the parametric one‐way ANOVA followed by a Tukey's post hoc test. The data for cell viability and Western blot were usually normalized to the control group, and were thus analysed by the non‐parametric Kruskal–Wallis test followed by a Dunn's post hoc test. Differences were considered to be significant when P < .05. Post hoc tests were conducted when the F value achieved the necessary level (P < .05) and there was no significant variance inhomogeneity.
# (§7) We characterized the membrane currents associated with NCX activity in glioblastoma cells using whole‐cell patch‐clamp recording. […] The NCX current in its reverse mode (Ca^2+ entry) was measured at +50, and the forward‐mode current (Ca^2+ exit) was measured at −110 mV. The Ni^2+ (10 mM) was employed to inhibit and identify the NCX currents in its either reverse or forward mode as previously reported (Maack, Ganesan, Sidor, & O'Rourke, 2005).
# forward NCX = experiment: Whole-cell patch-clamp recording of forward-mode NCX currents in U87 cells; conditions: for IC50: forward NCX current measured at −110 mV, mean ± SEM, n = 4, read-out: IC50, blocking forward NCX (currents); for Inhibition of the forward NCX currents (in words): −110 mV, SEA0400 0.1–100 μM, SN‐6 and YM244769 0.1–30 μM
# Protocol: as §5, §6, §7
# [4] = Cell viability assay (Cell Counting Kit-8), ranges given for U87 and U251 together; conditions: human, U87 and U251 cells, read-out: Cell viability, % of control level
# Protocol: Cell viability was determined by using a Cell Counting Kit‐8 (Dojindo, Japan). Briefly, cells were harvested from flasks and plated in 96‐well cell culture plates at 5 × 10^3 per well and cultured overnight. Cells were treated with test reagents for 72 hr. Control cells were treated with cell culture medium and measured at the same time point as treatment groups. CCK‐8 solution (10 μl) was added to each well of the 96‐well plates, and the cultures were incubated for 30 min at 37°C. Absorbance at 450 nm was measured using an automatic microplate reader (Molecular Devices, San Jose, CA, USA).
IC50 (U87 cells [1]) [µM],IC50 (U251 cells) [µM],IC50 (reverse NCX) [µM],IC50 (forward NCX) [µM],SMILES,"Effect on cell cycle distribution, compound alone (U87 cells [2])","Effect on intracellular Ca2+ pool and ER Ca2+ transporting ([Ca^2+]i in U87 cells; Ca2+‐free solution, followed by 5‐μM thapsigargin)","Effect on [Ca2+]i level ([Ca^2+]i in U87 cells; solution containing 2‐mM Ca2+, bepridil or KB‐R7943 25 or 50 μM, CB‐DMB 2 and 4 μM)",Effect on intracellular Na+ [Na+]i level ([Na^+]i in U87 cells),"Effect on apoptosis (Annexin V+ cells), compound alone (U87 cells [3])",IC50 (SF188 cells) [µM],"Effect on bepridil-induced apoptosis (U87 cells [3]; bepridil 25 μM 24 hr, pretreatment BAPTA‐AM 10 μM, CC‐930 10 μM or PD169316 10 μM)",Inhibition of the forward NCX currents (in words) (forward NCX),"viability at 72 h, 10 µM [4] [%]","viability at 72 h, 20 µM [4] [%]","viability at 72 h, 50 µM [4] [%]"
3.1 ± 0.6,2.7 ± 0.1,,,"Cc1ccc(CNC(N)=NC(=O)c2nc(Cl)c(NCc3ccc(Cl)cc3)nc2N)c(C)c1 [CB‐DMB, [N‐(4‐chlorobenzyl)]2,4‐dimethylbenzamyl]",induced G0/G1 arrest,did not affect the ER Ca^2+ transporters,elevated [Ca^2+]i,did not change,activated apoptosis in time‐dependent manner,2.6 ± 0.1,,,,,
,,3.6 ± 1.2,> 30,"CCOc1ccc(Oc2ccc(OCc3cc(F)ccc3F)cc2)c(N)c1 [SEA0400, 2‐[4‐[(2,5‐difluorophenyl)methoxy]phenoxy]‐5‐ethoxyaniline]",,,,,,,,without inhibition of the forward NCX currents,93 to 106,88 to 103,72 to 92

# The next lines start with the molecule.
SMILES,IC50 (U87 cells [1]) [µM],IC50 (U251 cells) [µM],IC50 (reverse NCX) [µM],IC50 (forward NCX) [µM],"Effect on cell cycle distribution, compound alone (U87 cells [2])","Effect on intracellular Ca2+ pool and ER Ca2+ transporting ([Ca^2+]i in U87 cells; Ca2+‐free solution, followed by 5‐μM thapsigargin)","Effect on [Ca2+]i level ([Ca^2+]i in U87 cells; solution containing 2‐mM Ca2+, bepridil or KB‐R7943 25 or 50 μM, CB‐DMB 2 and 4 μM)",Effect on intracellular Na+ [Na+]i level ([Na^+]i in U87 cells),"Effect on apoptosis (Annexin V+ cells), compound alone (U87 cells [3])",IC50 (SF188 cells) [µM],"Effect on bepridil-induced apoptosis (U87 cells [3]; bepridil 25 μM 24 hr, pretreatment BAPTA‐AM 10 μM, CC‐930 10 μM or PD169316 10 μM)",Inhibition of the forward NCX currents (in words) (forward NCX),"viability at 72 h, 10 µM [4] [%]","viability at 72 h, 20 µM [4] [%]","viability at 72 h, 50 µM [4] [%]"
"O[C@H]1CC[C@H](Nc2ncc3nc(Nc4c(F)cc(F)cc4F)n([C@H]4CCOC4)c3n2)CC1 [CC‐930, tanzisertib]",,,,,,,,,did not activate apoptosis,,attenuated,,,,
"CCOC(=O)C1CSC(Cc2ccc(OCc3ccc([N+](=O)[O-])cc3)cc2)N1 (stereo not shown) [SN‐6, 2‐[[4‐[(4‐nitrophenyl)methoxy]phenyl]methyl]‐4‐thiazolidinecarboxylic acid ethyl ester]",,,3.2 ± 1.2,> 30,,,,,,,,without inhibition of the forward NCX currents,87 to 97,86 to 99,74 to 104
"Cl.Cl.Nc1cccc(CNC(=O)c2ccc(Oc3ccc(OCc4cccc(F)c4)cc3)nc2)c1 [YM244769, N‐[(3‐aminophenyl)methyl]‐6‐[4‐[(3‐fluorophenyl)methoxy]phenoxy]‐3‐pyridinecarboxamide dihydrochloride]",,,4.5 ± 1.1,> 30,,,,,,,,without inhibition of the forward NCX currents,87 to 100,84 to 96,71 to 76
